Read-outs that look alike come from different tables or passages of the source.

The data set relates to Sprague Dawley rats. On the procedure:
Sprague Dawley rats Crl:CD from Charles River, Raleigh, N.C. were divided into treated rats that receive a specific concentration of the compound (see Table 1) and. control rats that only received the vehicle in which the compound is mixed (e.g., saline).
At specified timepoints (6 h, 24 h and 72 h) after administration (intraperitoneal route) of the compound, a set number of rats (usually 3 control and 3 treated) were euthanized and tissues collected. Each, rat was heavily sedated with an overdose of CO2 by inhalation and a maximum amount of blood drawn. Exsanguination of the rat by this drawing of blood kills the rat. The method of collecting the tissues is very important and ensures preserving the quality of the mRNA in the tissues. The body of the rat was then opened up and prosectors rapidly removed the tissues (including) and immediately placed them into liquid nitrogen. […] The organs/tissues were then packaged into well-labeled plastic freezer quality bags and stored at −80 degrees until needed for isolation of the mRNA from a portion of the organ/tissue sample.
Histopathology scores for each animal (assigned on a compound-dose basis as indicated in Table 1) were entered with gene expression data by using the GeneSpring™ ‘Drawn Gene’ function. Correlations between the histopathology scores and gene expression were conducted with the distance measures listed below:
Toxicity classifications were entered for training and test set as a parameter column. Toxicity, as defined by observation of necrosis in the at 72 hours after treatment, was entered as a “yes” or “no” for each animal in a compound-dose group. Additionally, a parameter column for random histopathology classification was designated. This was done by randomly assigning the same number of “yes” and “no” calls to the individual animals.

Where [1] appears, read: Sprague Dawley, rat, in vivo, ip, 50 mg/kg, 72 h.
Setting [2] is: Sprague Dawley, rat, in vivo, ip, 200 mg/kg, 72 h.
Where [3] appears, read: Sprague Dawley, rat, in vivo, ip, 250 mg/kg, 72 h.

For lipopolysaccharide, the “Liver Toxicity Necrosis Classification” value runs as follows: (72 h, dose 8) “yes”; (72 h; dose 2) “no”; (compound-dose group at 72 h, dose 2) “no”; (compound-dose group at 72 h, dose 8) “yes”; (compound-dose group at 72 h; CCL4 1000, DMN 20, LPS 8) “yes”; (compound-dose group at 72 h; dose 2) “no”. The “Liver Toxicity Necrosis Classification” value (compound-dosegroup at 72 h; dose 2) was “no” and the “Liver Toxicity Necrosis Classification” value (compound-dosegroup at 72 h; dose 8) was “yes”. Moreover, under “rat, high dose of Table 1, liver necrosis at 72 hours”, the “toxicity at the high dose” value is recorded as “produced toxicity”. Moreover, the “Liver Necrosis” value is “no” (rat, intraperitoneal, dose 2 mg/kg, 72 hours after treatment) and “Yes” (rat, intraperitoneal, dose 8 mg/kg, 72 hours after treatment). The “Score (histopathology liver necrosis severity score)” value (rat, intraperitoneal, dose 2 mg/kg, 72 hours; 1 = not remarkable, 2 and higher increasing severity) was 1; the “Score (histopathology liver necrosis severity score)” value (rat, intraperitoneal, dose 8 mg/kg, 72 hours; 1 = not remarkable, 2 and higher increasing severity) was 6. In addition, the “toxicity at the low dose” value (rat, low dose of Table 1, liver necrosis at 72 hours) is “not at the low dose”.
Take `ClC(Cl)Cl` [chloroform]: the “Liver Toxicity Necrosis Classification” value (rat, in vivo) is reported as “no”. For the same compound, for the setting “rat, in vivo, ip”, the “Liver Necrosis” value was “no” and the “Score (histopathology liver necrosis severity score)” value was 1.
As to `COc1ccc(C[C@H](N)C(=O)N[C@H]2[C@@H](O)[C@H](n3cnc4c(N(C)C)ncnc43)O[C@@H]2CO)cc1` [puromycin], the “Score (histopathology liver necrosis severity score)” value (Sprague Dawley, rat, in vivo, ip, 38 mg/kg, 72 h) is 1 and the “Score (histopathology liver necrosis severity score)” value (Sprague Dawley, rat, in vivo, ip, 150 mg/kg, 72 h) turned out to be 1. Also, the “Liver Toxicity Necrosis Classification” value (rat, in vivo) is “no”. Besides, the “Liver Necrosis” value (rat, in vivo, ip, 38 mg/kg) is recorded as “no” and the “Liver Necrosis” value (rat, in vivo, ip, 150 mg/kg) is on record as “no”.
`O=c1[nH]cc(F)c(=O)[nH]1` [5-fluorouracil]: the “Score (histopathology liver necrosis severity score)” value is listed as 1 (Sprague Dawley, rat, in vivo, ip, 13 mg/kg, 72 h) and 1 under setting [1]. Moreover, the “Liver Toxicity Necrosis Classification” value (rat, in vivo) was “no”. Further, the “Liver Necrosis” value (rat, in vivo, ip, 13 mg/kg) is listed as “no” and the “Liver Necrosis” value (rat, in vivo, ip, 50 mg/kg) is listed as “no”.
As to `Nc1nc(O)c2ncn(COC(CO)CO)c2n1` [gancyclovir], the “Score (histopathology liver necrosis severity score)” value under setting [1] was 1 and the “Score (histopathology liver necrosis severity score)” value under setting [2] was 1. For the same compound, the “Liver Toxicity Necrosis Classification” value (rat, in vivo) is listed as “no”. Besides, the “Liver Necrosis” value reads like this: (rat, in vivo, ip, 50 mg/kg) “no”; (rat, in vivo, ip, 200 mg/kg) “no”.
In the case of polyethylene glycol, the “Liver Necrosis” value (rat, in vivo, ip) is on record as “no”.
Take `Cn1cnc([N+](=O)[O-])c1Sc1ncnc2nc[nH]c12` [azathioprine]: the “Score (histopathology liver necrosis severity score)” value runs as follows: under setting [1], 1; under setting [2], 1. Where the note is “rat, in vivo”, the “Liver Toxicity Necrosis Classification” value is “no”. Moreover, the “Liver Necrosis” value is “No” (rat, in vivo, ip, 50 mg/kg) and “No” (rat, in vivo, ip, 200 mg/kg).
In the case of `c1ccc2c(c1)cc1ccc3cccc4ccc2c1c34` [benzo[a]pyrene], the “Liver Toxicity Necrosis Classification” value (compound-dose group at 72 h; dose 30) is given as “no”. The “Liver Necrosis” value (rat, intraperitoneal, dose 30 mg/kg, 72 hours after treatment) is given as “No”. The “Score (histopathology liver necrosis severity score)” value (rat, intraperitoneal, dose 30 mg/kg, 72 hours; 1 = not remarkable, 2 and higher increasing severity) amounted to 1.
Regarding `CCOC(=O)C(C)(C)Oc1ccc(Cl)cc1` [clofibrate], the “Score (histopathology liver necrosis severity score)” value is given as 1 (Sprague Dawley, rat, in vivo, ip, 75 mg/kg, 72 h) and 1 under setting [3]. For the same compound, for the setting “rat, in vivo”, the “Liver Toxicity Necrosis Classification” value is given as “no”. Moreover, the “Liver Necrosis” value is “no” (rat, in vivo, ip, 75 mg/kg) and “no” (rat, in vivo, ip, 250 mg/kg).
As to gentamicin, the “Liver Toxicity Necrosis Classification” value is “no” (at 72 h; dose 38); “no” (at 72 h; dose 150); “no” (compound-dose group at 72 h, dose 38); “no” (compound-dose group at 72 h, dose 150); “no” (compound-dose group at 72 h; dose 38); “no” (compound-dose group at 72 h; dose 150). Moreover, for the setting “compound-dosegroup at 72 h; dose 38”, the “Liver Toxicity Necrosis Classification” value is on record as “no”. The “Liver Necrosis” value is listed as “no” (rat, intraperitoneal, dose 38 mg/kg, 72 hours after treatment) and “no” (rat, intraperitoneal, dose 150 mg/kg, 72 hours after treatment). For the same compound, the “Score (histopathology liver necrosis severity score)” value (rat, intraperitoneal, dose 38 mg/kg, 72 hours; 1 = not remarkable, 2 and higher increasing severity) worked out at 1; the “Score (histopathology liver necrosis severity score)” value (rat, intraperitoneal, dose 150 mg/kg, 72 hours; 1 = not remarkable, 2 and higher increasing severity) is given as 1.
On to `N.N.[Cl][Pt][Cl]` [cisplatin], for which the “Liver Necrosis” value (rat, intraperitoneal, dose 10 mg/kg, 72 hours after treatment) is reported as “no”. In addition, the “Score (histopathology liver necrosis severity score)” value (rat, intraperitoneal, dose 10 mg/kg, 72 hours; 1 = not remarkable, 2 and higher increasing severity) is given as 1.
As for `C[C@]12CC[C@@H]3c4ccc(O)cc4CC[C@H]3[C@@H]1CC[C@@H]2O` [estradiol], the “Score (histopathology liver necrosis severity score)” value is 1 (Sprague Dawley, rat, in vivo, ip, 0.1 mg/kg, 72 h) and 1 (Sprague Dawley, rat, in vivo, ip, 0.4 mg/kg, 72 h). In addition, where the note is “rat, in vivo”, the “Liver Toxicity Necrosis Classification” value is “no”. The “Liver Necrosis” value by setting is: (rat, in vivo, ip, 0.1 mg/kg) “no”; (rat, in vivo, ip, 0.4 mg/kg) “no”.
For the compound `NNC(=O)c1ccncc1` [isoniazid], the “Score (histopathology liver necrosis severity score)” value is given as 1 under setting [1] and 1 under setting [2]. The “Liver Toxicity Necrosis Classification” value (rat, in vivo) is “no”. Besides, the “Liver Necrosis” value is recorded as “no” (rat, in vivo, ip, 50 mg/kg) and “no” (rat, in vivo, ip, 200 mg/kg).
For the compound `COc1cccc2c1C(=O)c1c(O)c3c(c(O)c1C2=O)C[C@@](O)(C(=O)CO)C[C@@H]3O[C@H]1C[C@H](N)[C@H](O)[C@H](C)O1` [doxorubicin], for the setting “Sprague Dawley, rat, in vivo, ip, 12 mg/kg, 72 h”, the “Score (histopathology liver necrosis severity score)” value came to 1. In addition, where the note is “rat, in vivo”, the “Liver Toxicity Necrosis Classification” value is given as “no”. Besides, the “Liver Necrosis” value (rat, in vivo, ip, 12 mg/kg) is given as “no”.
As for `CCO` [ethanol], the “Liver Toxicity Necrosis Classification” value (rat, in vivo) is recorded as “no”. Moreover, under “rat, in vivo, ip”, the “Liver Necrosis” value is listed as “no” and the “Score (histopathology liver necrosis severity score)” value was 1.
Consider `C=C[C@H]1C[N@@]2CC[C@H]1C[C@@H]2[C@@H](O)c1ccnc2ccc(OC)cc12` [quinidine], for which the “Liver Necrosis” value is recorded as “no” (rat, intraperitoneal, dose 25 mg/kg, 72 hours after treatment) and “no” (rat, intraperitoneal, dose 100 mg/kg, 72 hours after treatment). Moreover, the “Score (histopathology liver necrosis severity score)” value is, setting by setting: (rat, intraperitoneal, dose 25 mg/kg, 72 hours; 1 = not remarkable, 2 and higher increasing severity) 1; (rat, intraperitoneal, dose 100 mg/kg, 72 hours; 1 = not remarkable, 2 and higher increasing severity) 1.
Consider `CN(C)CCCN1c2ccccc2Sc2ccc(Cl)cc21` [chlorpromazine], for which the “Score (histopathology liver necrosis severity score)” value by setting is: (Sprague Dawley, rat, in vivo, ip, 8 mg/kg, 72 h) 1; (Sprague Dawley, rat, in vivo, ip, 30 mg/kg, 72 h) 1. Also, where the note is “rat, in vivo”, the “Liver Toxicity Necrosis Classification” value is “no”. In addition, the “Liver Necrosis” value (rat, in vivo, ip, 8 mg/kg) was “no” and the “Liver Necrosis” value (rat, in vivo, ip, 30 mg/kg) is “no”.
`NC(=O)NO` [hydroxyurea]: the “Score (histopathology liver necrosis severity score)” value was 1 under setting [3] and 1 (Sprague Dawley, rat, in vivo, ip, 1000 mg/kg, 72 h). In addition, the “Liver Toxicity Necrosis Classification” value (rat, in vivo) was “no”. Also, the “Liver Necrosis” value reads like this: (rat, in vivo, ip, 250 mg/kg) “no”; (rat, in vivo, ip, 1000 mg/kg) “no”.
For `c1ccccc1` [benzene], for the setting “rat, in vivo”, the “Liver Toxicity Necrosis Classification” value is given as “no”. Besides, under “rat, in vivo, ip”, the “Liver Necrosis” value is on record as “No” and the “Score (histopathology liver necrosis severity score)” value was 1.
In the case of `CC(=O)N1CCN(c2ccc(OCC3COC(Cn4ccnc4)(c4ccc(Cl)cc4Cl)O3)cc2)CC1` (stereo not shown) [ketoconazole], the “Score (histopathology liver necrosis severity score)” value (Sprague Dawley, rat, in vivo, ip, 20 mg/kg, 72 h) is on record as 1 and the “Score (histopathology liver necrosis severity score)” value (Sprague Dawley, rat, in vivo, ip, 80 mg/kg, 72 h) came to 1. The “Liver Toxicity Necrosis Classification” value (rat, in vivo) is “no”. The “Liver Necrosis” value is, setting by setting: (rat, in vivo, ip, 20 mg/kg) “no”; (rat, in vivo, ip, 80 mg/kg) “no”.

(Values after US20040076974A1, “Liver necrosis predictive genes” (priority 2002, published 2004).)
